Earlier results, collected in patent publication US6441047B2, “Combination therapy for treating glaucoma” (Alcon Manufacturing Ltd.., priority 1995, dated 2002).

Assays:
[1] = Drugs of the Future, 1994, 19, 905-909
[2] = Drugs of the Future, 1994, 19, 905-909; remark: listed apart in the source
[3] = Drugs of the Future, 1994, 19, 905-909; remark: listed apart in the source

oral bioavailability [3]: orally bioavailable
Compound: OC(CN1CCC(Cc2ccc(F)cc2)CC1)c1ccc(Cl)cc1 (stereo not drawn) [eliprodil]
incidence of adverse effects upon administration [1]: low incidence of adverse effects
blood-brain barrier penetration [2]: effectively crosses the blood-brain barrier
